≈ marks a conversion by molar mass, not a printed value.
Tests used:
Type in all cases: cell-based
[1] = test system: Proteus rettgeri IFO 3850; test: Antibacterial activity, agar-dilution MIC, organism No. 22; settings: Providencia rettgeri, IFO3850; Organism No. 22, bouillon-agar; read-out: Minimum Inhibitory Concentration
Outline: (§1)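 Minimum inhibitory concentration determined on solid bouillon agar by the agar-dilution technique, with values stated as μg/ml.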

[2] = test system: Staphylococcus aureus Terajima; test: Antibacterial activity, agar-dilution MIC, organism No. 2; settings: Staphylococcus aureus; Organism No. 2, bouillon-agar; read-out: Minimum Inhibitory Concentration
Outline: as §1

[3] = test system: Serratia marcescens IAM 1184; test: Antibacterial activity, agar-dilution MIC, organism No. 13; settings: Serratia marcescens, IAM1184; Organism No. 13, bouillon-agar; read-out: Minimum Inhibitory Concentration
Excerpt: Agar-dilution method was used for determination of the antibacterial activity and antifungal activity while using bouillon-agar culture medium, and the minimum inhibitory concentration of the specimen was expressed by μg/ml of the culture medium.

[4] = test system: Proteus morganii IFO 3848; test: Antibacterial activity, agar-dilution MIC, organism No. 18; settings: Morganella morganii, IFO3848; Organism No. 18, bouillon-agar; read-out: Minimum Inhibitory Concentration
Outline: as §1

[5] = test system: Mycoplasma pneumoniae IID817; test: Antimycoplasmal activity, MIC by phenol red colour change, organism No. 28; settings: Mycoplasma, IID817; Organism No. 28, PPLO broth + 1% glucose, 37° C.; read-out: Minimum Inhibitory Concentration (MIC)
Experimental: Mycoplasma pneumoniae IID817 was used as the test microorganism in a culture medium prepared by adding 1% of glucose to "PPLO broth (manufactured by Difco Co.) liquid culture medium" at 37° C. with phenol red as an indicator, thereby culturing the test microorganism.

[6] = test system: Bacillus subtilis ATCC 6633; test: Antibacterial activity, agar-dilution MIC, organism No. 14; settings: Bacillus subtilis, ATCC6633; Organism No. 14, bouillon-agar; read-out: Minimum Inhibitory Concentration
Outline: as §1

[7] = test system: Enterobacter aerogenes ATCC 13048; test: Antibacterial activity, agar-dilution MIC, organism No. 23; settings: Klebsiella aerogenes, ATCC13048; Organism No. 23, bouillon-agar; read-out: Minimum Inhibitory Concentration
Outline: as §1

[8] = test system: Pseudomonas aeruginosa IFO 3445; test: Antibacterial activity, agar-dilution MIC, organism No. 15; settings: Pseudomonas aeruginosa, IFO3445; Organism No. 15, bouillon-agar; read-out: Minimum Inhibitory Concentration
Outline: as §1

[9] = test system: Salmonella paratyphi-A 1015; test: Antibacterial activity, agar-dilution MIC, organism No. 10; settings: Salmonella enterica, PARATYPHI, read-out: Minimum Inhibitory Concentration
Outline: as §1

[10] = test system: Escherichia coli K12 C600 IAM 1264; test: Antibacterial activity, agar-dilution MIC, organism No. 6; settings: Escherichia coli, IAM1264; Organism No. 6, bouillon-agar; read-out: Minimum Inhibitory Concentration
Outline: as §1

[11] = test system: Salmonella shottmuelleri 8006; test: Antibacterial activity, agar-dilution MIC, organism No. 11; settings: Salmonella, 8006; Organism No. 11, bouillon-agar; read-out: Minimum Inhibitory Concentration
Outline: as §1

Salmonella typhi 901 = test: Antibacterial activity, agar-dilution MIC, organism No. 9; settings: Salmonella enterica, TYPHI, read-out: Minimum Inhibitory Concentration
Outline: as §1

[12] = test system: Salmonella enteritidis G 14; test: Antibacterial activity, agar-dilution MIC, organism No. 12; settings: Salmonella enterica, ENTERITIDIS; Organism No. 12, bouillon-agar; read-out: Minimum Inhibitory Concentration
Outline: as §1

[13] = test system: Proteus mirabilis IFO 3849; test: Antibacterial activity, agar-dilution MIC, organism No. 19; settings: Proteus mirabilis, IFO3849; Organism No. 19, bouillon-agar; read-out: Minimum Inhibitory Concentration
Outline: as §1

[14] = test system: Salmonella typhimurium IID 971; test: Antibacterial activity, agar-dilution MIC, organism No. 8; settings: Salmonella enterica; Organism No. 8, bouillon-agar; read-out: Minimum Inhibitory Concentration
Outline: as §1

[15] = test system: Streptococcus faecium IFO 3826; test: Antibacterial activity, agar-dilution MIC, organism No. 27; settings: Enterococcus faecium, IFO3826; Organism No. 27, bouillon-agar; read-out: Minimum Inhibitory Concentration
Outline: as §1

Proteus vulgaris HX-19 = test: Antibacterial activity, agar-dilution MIC, organism No. 21; settings: Proteus vulgaris, HX19; Organism No. 21, bouillon-agar; read-out: Minimum Inhibitory Concentration
Outline: as §1

[16] = test system: Staphylococcus aureus FDA 209PJc-1; test: Antibacterial activity, agar-dilution MIC, organism No. 1; settings: Staphylococcus aureus, FDA209PJC1; Organism No. 1, bouillon-agar; read-out: Minimum Inhibitory Concentration
Outline: as §1

[17] = test system: Pseudomonas aeruginosa NCTC 10490; test: Antibacterial activity, agar-dilution MIC, organism No. 16; settings: Pseudomonas aeruginosa, NCTC10490; Organism No. 16, bouillon-agar; read-out: Minimum Inhibitory Concentration
Outline: as §1

[18] = test system: Staphylococcus aureus MS 353; test: Antibacterial activity, agar-dilution MIC, organism No. 3; settings: Staphylococcus aureus, MS353; Organism No. 3, bouillon-agar; read-out: Minimum Inhibitory Concentration
Outline: as §1

[19] = test system: Klebsiella pneumoniae PCI-602; test: Antibacterial activity, agar-dilution MIC, organism No. 7; settings: Klebsiella pneumoniae, PCI602; Organism No. 7, bouillon-agar; read-out: Minimum Inhibitory Concentration
Outline: as §1

[20] = test system: Escherichia coli NIHJ-JC-2; test: Antibacterial activity, agar-dilution MIC, organism No. 5; settings: Escherichia coli, NIHJJC2; Organism No. 5, bouillon-agar; read-out: Minimum Inhibitory Concentration
Outline: as §1

[21] = test system: Streptococcus pyogenes IFO 3340; test: Antibacterial activity, agar-dilution MIC, organism No. 26; settings: Streptococcus pyogenes, IFO3340; Organism No. 26, bouillon-agar; read-out: Minimum Inhibitory Concentration
Outline: as §1

[22] = test system: Candida albicans IAM 4905; test: Antifungal activity, agar-dilution MIC, organism No. 29; settings: Candida albicans, IAM4905; Organism No. 29, bouillon-agar; read-out: Minimum Inhibitory Concentration
Outline: as §1

[23] = test system: Aspergillus niger IFO 6342; test: Antifungal activity, agar-dilution MIC, organism No. 30; settings: Aspergillus niger, IFO6342; Organism No. 30, bouillon-agar; read-out: Minimum Inhibitory Concentration
Outline: as §1

[24] = test system: Pseudomonas aeruginosa PAO 1; test: Antibacterial activity, agar-dilution MIC, organism No. 17; settings: Pseudomonas aeruginosa, PAO1; Organism No. 17, bouillon-agar; read-out: Minimum Inhibitory Concentration
Outline: as §1

Enterobacter cloacae 963 = test: Antibacterial activity, agar-dilution MIC, organism No. 24; settings: Enterobacter cloacae, 963; Organism No. 24, bouillon-agar; read-out: Minimum Inhibitory Concentration
Outline: as §1

[25] = test system: Streptococcus pyogenes Cook; test: Antibacterial activity, agar-dilution MIC, organism No. 4; settings: Streptococcus pyogenes; Organism No. 4, bouillon-agar; read-out: Minimum Inhibitory Concentration
Outline: as §1

[26] = test system: Micrococcus luteus ATCC 9341; test: Antibacterial activity, agar-dilution MIC, organism No. 25; settings: Micrococcus luteus, ATCC9341; Organism No. 25, bouillon-agar; read-out: Minimum Inhibitory Concentration
Outline: as §1

Proteus vulgaris OX-19 = test: Antibacterial activity, agar-dilution MIC, organism No. 20; settings: Proteus vulgaris, OX19; Organism No. 20, bouillon-agar; read-out: Minimum Inhibitory Concentration
Outline: as §1

| SMILES | MIC [1] | MIC [2] | MIC [3] | MIC [4] | MIC [5] | MIC [6] | MIC [7] | MIC [8] | MIC [9] | MIC [10] | MIC [11] | MIC (Salmonella typhi 901) | MIC [12] | MIC [13] | MIC [14] | MIC [15] | MIC (Proteus vulgaris HX-19) | MIC [16] | MIC [17] | MIC [18] | further results |
| --- | --- | --- | --- | --- | --- | --- | --- | --- | --- | --- | --- | --- | --- | --- | --- | --- | --- | --- | --- | --- | --- |
| [C-]#[N+]C12CC3(/C=C/C(=O)OC)OC3C1O2 (centres unmarked) [Compound No. 1] | 25 µg/mL (≈ 121 µM) | 12.5 µg/mL (≈ 60.3 µM) | 200 µg/mL (≈ 965 µM) | 6.25 µg/mL (≈ 30.2 µM) | < 0.2 µg/mL | 50 µg/mL (≈ 241 µM) | > 200 µg/mL | > 200 µg/mL | 6.25 µg/mL (≈ 30.2 µM) | 12.5 µg/mL (≈ 60.3 µM) | 6.25 µg/mL (≈ 30.2 µM) | 3.13 µg/mL (≈ 15.1 µM) | 6.25 µg/mL (≈ 30.2 µM) | 6.25 µg/mL (≈ 30.2 µM) | 12.5 µg/mL (≈ 60.3 µM) | 12.5 µg/mL (≈ 60.3 µM) | 0.2 µg/mL (≈ 0.965 µM) | 12.5 µg/mL (≈ 60.3 µM) | > 200 µg/mL | 6.25 µg/mL (≈ 30.2 µM) | MIC [19]: 6.25 µg/mL (≈ 30.2 µM); MIC [20]: 12.5 µg/mL (≈ 60.3 µM); MIC [21]: 100 µg/mL (≈ 483 µM); MIC [22]: 6.25 µg/mL (≈ 30.2 µM); MIC [23]: 12.5 µg/mL (≈ 60.3 µM); MIC [24]: > 200 µg/mL; MIC (Enterobacter cloacae 963): 25 µg/mL (≈ 121 µM); MIC [25]: 200 µg/mL (≈ 965 µM); MIC [26]: 6.25 µg/mL (≈ 30.2 µM); MIC (Proteus vulgaris OX-19): 6.25 µg/mL (≈ 30.2 µM) |
| [C-]#[N+]C12CC3(/C=C/C(=O)OCC(=O)c4ccccc4)OC3C1O2 (centres unmarked) [Compound No. 3] | 50 µg/mL (≈ 161 µM) | 3.13 µg/mL (≈ 10.1 µM) | > 100 µg/mL | 3.13 µg/mL (≈ 10.1 µM) | 0.05 µg/mL | 50 µg/mL (≈ 161 µM) | > 100 µg/mL | > 100 µg/mL | 6.25 µg/mL (≈ 20.1 µM) | 50 µg/mL (≈ 161 µM) | 6.25 µg/mL (≈ 20.1 µM) | 12.5 µg/mL (≈ 40.2 µM) | 12.5 µg/mL (≈ 40.2 µM) | 50 µg/mL (≈ 161 µM) | 50 µg/mL (≈ 161 µM) | 3.13 µg/mL (≈ 10.1 µM) | 0.05 µg/mL (≈ 0.161 µM) | 0.2 µg/mL (≈ 0.642 µM) | > 100 µg/mL | 0.05 µg/mL (≈ 0.161 µM) | MIC [19]: 6.25 µg/mL (≈ 20.1 µM); MIC [20]: 50 µg/mL (≈ 161 µM); MIC [21]: 6.25 µg/mL (≈ 20.1 µM); MIC [22]: 0.8 µg/mL (≈ 2.57 µM); MIC [23]: 3.13 µg/mL (≈ 10.1 µM); MIC [24]: > 100 µg/mL; MIC (Enterobacter cloacae 963): > 100 µg/mL; MIC [25]: 6.25 µg/mL (≈ 20.1 µM); MIC [26]: 0.2 µg/mL (≈ 0.642 µM); MIC (Proteus vulgaris OX-19): 1.56 µg/mL (≈ 5.01 µM) |
| [C-]#[N+]C12CC3(/C=C/C(=O)Nc4ccc(C(F)(F)F)cc4)OC3C1O2 (centres unmarked) [compound 46] | 200 µg/mL (≈ 595 µM) | 0.39 µg/mL (≈ 1.16 µM) | 200 µg/mL (≈ 595 µM) | 1.56 µg/mL (≈ 4.64 µM) | < 0.2 µg/mL | 6.25 µg/mL (≈ 18.6 µM) | > 200 µg/mL | > 200 µg/mL | 0.78 µg/mL (≈ 2.32 µM) | > 200 µg/mL | 0.78 µg/mL (≈ 2.32 µM) | 50 µg/mL (≈ 149 µM) | 25 µg/mL (≈ 74.3 µM) | > 200 µg/mL | 50 µg/mL (≈ 149 µM) | > 200 µg/mL | 0.39 µg/mL (≈ 1.16 µM) | 0.1 µg/mL (≈ 0.297 µM) | > 200 µg/mL | < 0.05 µg/mL | MIC [19]: 0.39 µg/mL (≈ 1.16 µM); MIC [20]: > 200 µg/mL; MIC [21]: 3.13 µg/mL (≈ 9.31 µM); MIC [22]: 1.56 µg/mL (≈ 4.64 µM); MIC [23]: 3.13 µg/mL (≈ 9.31 µM); MIC [24]: > 200 µg/mL; MIC (Enterobacter cloacae 963): > 200 µg/mL; MIC [26]: < 0.05 µg/mL; MIC (Proteus vulgaris OX-19): 0.39 µg/mL (≈ 1.16 µM) |

— patent publication US4684664A, “Derivatives of β-(4-isocyano-1,2,3,4-diepoxycyclopentyl) acrylic acid” (Kureha Kagaku Kogyo Kabushiki Kaisha, priority 1984, dated 1987)
